Patent US4214001A, “1-(4-Acylamino-phenyl)-2-amino-ethanols and salts thereof” (Boehringer Ingelheim GmbH, priority 1977, dated 1980)
Read-outs that look alike come from different tables or passages of the source.

How the values were obtained:
[1] = Acute toxicity, intravenous, LD50; settings: mouse, in vivo, i.v., mice, animals which died within 14 days
Procedure: The intravenous toxicity was determined on laboratory mice of both sexes having an average body weight of 20 gm. From the number of animals which died within 14 days at various dosage levels, the median lethal dose (LD50) was calculated by the method of Litchfield and Wilcoxon, supra.

[2] = test system: bronchospasms induced by acetylcholine; test: Bronchospasmolytic activity (method of Konzett et al.), acetylcholine-induced bronchospasm; assay type: in vivo; settings: anesthetized guinea pigs; for ED50: Cavia porcellus, dose which produces a 50% reduction of the bronchospasm, acetylcholine 20 mgm/kg i.v.
Procedure: The compounds were tested on adult guinea pigs of both sexes by the standard pharmacological test method of Konzett et al., Naunyn-Schmiedeberg's Arch. Exp. Path. Pharmakol. 195, 71-74 (1940). The test animals were anesthetized with 1.5 gm/kg urethane i.p. The bronchospasms were induced by injection of 20 mgm/kg of acetylcholine i.v. The test compound was administered intravenously or intraduodenally. From the average values of maximum decrease in bronchoconstriction obtained at various dosage levels, an ED50 i.e. the dose which produces a 50% reduction of the bronchospasm, with confidence limits according to Fieller, Quart. J. Pharm. Phamacol. 17, 117-123 (1944), was calculated by linear regression analysis according to Linder, Statistische Methoden, 4th Ed., 148-162, published by Birkhauser, Basel, Switzerland (1964).

[3] = test system: asthma attack induced by acetylcholine aerosol; test: Antiasthmatic activity (method of Kallos et al.), acetylcholine aerosol; assay type: in vivo, guinea pigs
Procedure: The standard test method of Kallos et al., Acta med. scand. 91, 292 (1937) was used. The test compound was orally administered to adult guinea pigs which were then exposed to an acetylcholine aerosol steam produced with an aerosol nozzle at 1.5 atmospheres gauge from a 0.4% solution of acetylcholine in an aqueous 0.9% sodium chloride solution. A more than three-fold prolongation of the time until onset of the asthma attack in comparision to untreated controls was evaluated as absolute protection. From the number of animals which were protected at various dosages, an ED50, i.e. the dose which gives absolute protection in 50% of the animals, was calculated by the method of Litchfield and Wilcoxon, J. Pahrmacol. Exper. Ther. 96, 99 (1949).

[4] = iv, read-out: ED50 after i.v. administration
[5] = i.d. (intraduodenal), read-out: ED50 after i.d. administration

CCOC(=O)Nc1c(F)cc(C(O)CNC(C)(C)C)cc1Cl.Cl (stereo not drawn) [A, 1-(4'-ethoxycarbonylamino-3'-chloro-5'-fluoro-phenyl)-2-tert.-butylamino-ethanol hydrochloride]
LD50 at 336 h [1]: 70.2 mg/kg | ED50 [2, 4]: 0.0307 mg/kg | ED50 [2, 5]: 0.0323 mg/kg | t/2 after i.v. administration [2]: 60 min

CCOC(=O)Nc1c(F)cc(C(O)CNC(C)(C)C)cc1C#N.Cl (stereo not drawn) [B, 1-(4'-ethoxycarbonylamino-3'-cyano-5'-fluoro-phenyl)-2-tert.-butylamino-ethanol hydrochloride]
LD50 at 336 h [1]: 97.5 mg/kg | ED50 ([3]; Cavia porcellus, po, dose which gives absolute protection in 50% of the animals (more than three-fold prolongation of time until onset of asthma attack), acetylcholine aerosol 0.4%): 0.0143 mg/kg | t/2 ([3]; p.o., guinea pigs): 150 min | Max. effect after min. ([3]; p.o., guinea pigs, time of maximum effect): 15 to 30 min | ED50 [2, 4]: 0.0056 mg/kg | ED50 [2, 5]: 0.007 mg/kg | t/2 after i.v. administration [2]: 70 min

CCOC(=O)Nc1ccc(C(O)CNC(C)(C)C)cc1C#N.Cl (stereo not drawn) [C, 1-(4'-ethoxycarbonylamino-3'-cyano-phenyl)-2-tert. butylamino-ethanol hydrochloride]
LD50 at 336 h [1]: 67.2 mg/kg | ED50 [2, 4]: 0.0235 mg/kg | ED50 [2, 5]: 0.0087 mg/kg | t/2 after i.v. administration [2]: > 50 min

CCOC(=O)Nc1ccc(C(O)CNC(C)C)cc1C#N.Cl (stereo not drawn) [D, 1-(4'-ethoxycarbonylamino-3'-cyano-phenyl)-2-isopropylamino-ethanol hydrochloride]
LD50 at 336 h [1]: 61.9 mg/kg | ED50 [2, 4]: 0.064 mg/kg | t/2 after i.v. administration [2]: > 50 min
